Test results as given in patent publication US20090028871A1, “NOVEL USE OF LIGANDS SPECIFIC TO FEX-2 POLYPEPTIDE” (KYUNGPOOK NATIONAL UNIVERSITY INDUSTRY-ACADEMIC COOPERATION …, priority 2004, published 2009).

Columns and labels:
[1] = test system: L/FEX-2 cells; assay: Inhibition of binding and phagocytosis of aged red blood cells by L/FEX-2 cells; type: cell-based, mouse; conditions: L/FEX-2 cells pre-cultured with 100 μM, 37° C., 30 minutes; relative to control group taken as 100%
Method: Whether or not aged red blood cells are bound and phagocytosed by the L/FEX-2 cells prepared in Example <1-2> and L/Mock cells as a control group was examined. For this purpose, normal red blood cells obtained from normal adult volunteers were first diluted with PBS to a hematocrit concentration of 20% and cultured at 37° C. for 4 days, thus preparing aged red blood cells. Then, each of L/FEX-2 cells, L/Mock cells and normal L cells was cultured to a confluent 6-well plate comprising Dulbecco's modified Eagle's medium (DMEM). To the culture media, aged red blood cells and normal red blood cells were added to a hematocrit concentration of 1% and cultured at 37° C. for one hour. Then, the cells were washed five times with PBS, and observed for the binding of the aged red blood cells and normal red blood cells using an optical microscope. The number of red blood cells bound to 100 randomly selected L/FEX-2 cells was counted and averaged. To analyze phagocytosis, the cells were washed with PBS and treated with water for 10 seconds to completely dissolve undigested cells. Then, the L/FEX-2 cells were stained using the Diff quick staining kit (IMEM Ins., San Marcos, Calif., USA), and five sites from the stained cells were randomly selected and counted for the number of cells which have phagocytosed red blood cells phagocytosed. Binding and phagocytosis indexes (%) were expressed as the percentages of cells having red blood cells bound and phagocytosed thereby, relative to the entire L/FEX-2 cells.
To the L/FEX-2 cells prepared in Example <1-2>, 100 μg/ml of the human FEX-2 monoclonal antibody (5G3) was added and the mixture was pre-cultured at 37° C. for one hour. As a control group, mouse immunoglobulin (IgG1) in place of the FEX-2 monoclonal antibody was used. […] After completion of the culture, the binding and phagocytosis of the aged red blood cells were analyzed in the same manner as in Example <4-1>. In this regard, the binding and phagocytosis of the aged red blood cells were expressed as inhibition percentage relative to the case of L/FEX-2 cells, which have not been pre-cultured with the antibody.
Whether the binding and phagocytosis of red blood cells by the L/FEX-2 cells are inhibited, it was examined by pre-culturing the L/FEX-2 cells with each of the PS liposome, PI liposome, PG liposome, PE liposome, PA liposome and PC liposome prepared in Example <5-3> and then additionally culturing the pre-cultured cells with aged red blood cells. […] After completion of the culture, the binding and phagocytosis of the aged red blood cells were analyzed in the same manner as in. […] The binding and phagocytosis of aged red blood cells were expressed as values relative to the control group taken as 100%. […]

[2] = test system: premyelomonocytic leukemic U937 cells; assay: Induction of apoptosis in U937 cells (annexin V flow cytometry); type: cell-based, human; conditions: 100 ng/ml, 4 hours
Method: For this purpose, the apoptosis of human leukemic Jurkat T cells (Korean cell line bank) and premyelomonocytic leukemic U937 cells (Korean cell line bank) was induced. The cells were cultured in an RPMI 1640 medium comprising 10% fetal bovine serum. The induction of apoptosis of the Jurkat T cells was performed according to a known method by inoculating the Jurkat T cells in a medium comprising 100 ng/ml of an anti-Fas antibody (CH-11) and culturing the inoculated cells for 6 hours (Oka, K. et al., Proc Natl Acad Sci USA, 95:9535-40, 1998). Also, the induction of apoptosis of the U937 cells was performed according to a known method by inoculating the U937 cells in a medium comprising 100 ng/ml of ectoposide and culturing the inoculated cells for 4 hours (Bave, U., et. al., J Immunol 165:3519-26, 2000). The degree of apoptosis of the cells was determined by measuring the amount of phosphatidylserine expressed on the cell surface, by flow cytometry in the same manner as in Example <5-1> using the annexin V apoptosis detection kit (Santacruz) according to the manufacturer's instruction.

| SMILES | binding of aged red blood cells [1] | phagocytosis of aged red blood cells [1] | apoptosis of the cells (phosphatidylserine on cell surface, annexin V) [2] |
| --- | --- | --- | --- |
| N[C@H](COP(=O)(O)O)C(=O)O [PDS, phospho-D-serine] | no significant effect | no significant effect |  |
| N[C@@H](COP(=O)(O)O)C(=O)O [PLS, phospho-L-serine] | significant inhibition | significant inhibition |  |
| COc1cc([C@@H]2c3cc4c(cc3[C@@H](O[C@@H]3O[C@@H]5CO[C@@H](C)O[C@H]5[C@H](O)[C@H]3O)[C@H]3COC(=O)[C@H]23)OCO4)cc(OC)c1O [ectoposide] |  |  | induced |
